From patent publication US7465744B2, “Triazole compounds and the therapeutic use thereof” (Abbott GmbH & Co. KG, priority 2003, dated 2008)
Counter-ions that a name gives are not always drawn.

Experiments:
[1] = molecular target: T1, human dopamine D2 (L) receptors (long isoform) (Homo sapiens, UniProt P14416); assay: Receptor binding study, dopamine D2(L) receptor ([125I]-iodospiperone displacement); settings: selectivity ratio D2(L) versus D3 binding
T1 construct: expressed in transfected cells
Experimental: (§1) The substance to be tested was dissolved either in methanol/Chremophor® (BASF-AG) or in dimethyl sulfoxide and then diluted with water to the desired concentration.
The mixture (1 ml) was composed of membranes from ˜10^6 HEK-293 cells with stably expressed human dopamine D2 (L) receptors (long isoform) and 0.01 nM [^125I]-iodospiperone and incubation buffer (total binding) or with addition of test substance (inhibition plot) or 1 μM haloperidol (nonspecific binding). Triplicate mixtures were carried out.
The incubation buffer contained 50 mM Tris, 120 mM NaCl, 5 mM KCl, 2 mM CaCl2, 2 mM MgCl2 and 0.1% bovine serum albumin. The buffer was adjusted to pH 7.4 with HCl.
(§2) After incubation at 25° C. for 60 minutes, the mixtures were filtered under vacuum through Wathman GF/B glass fiber filters using a cell harvester. The filters were transferred by a filter transfer system into scintillation vials. After addition of 4 ml of Ultima Gold® (Packard), the samples were shaken for one hour and then the radioactivity was calculated in a beta counter (Packard, Tricarb 2000 or 2200CA). The cp values were converted into dpm by means of a standard quench series with the aid of the instrument's own program.
(§3) Evaluation of the inhibition plots took place by iterative nonlinear regression analysis using the statistical analysis system (SAS) similar to the “LIGAND” program described by Munson and Rodbard.

[2] = molecular target: T2, human dopamine D3 receptors (Homo sapiens, UniProt P35462); assay: Receptor binding study, dopamine D3 receptor ([125I]-iodosulpride displacement); settings: membranes from HEK-293 cells, 0.1 nM [125I]-iodosulpride
T2 construct: expressed in transfected cells
Experimental: as §1
The mixture (0.250 ml) is composed of membranes from ˜10^6 HEK-293 cells with stably expressed human dopamine D3 receptors, 0.1 nM [^125I]-iodosulpride and incubation buffer (total binding) or with addition of test substance (inhibition plot) or 1 μM spiperone (nonspecific binding). Triplicate mixtures were carried out.
The incubation buffer contained 50 mM Tris, 120 mM NaCl, 5 mM KCl, 2 mM CaCl2, 2 mM MgCl2 and 0.1% bovine serum albumin, 10 μM quinolone, 0.1% ascorbic acid (prepared fresh each day). The buffer was adjusted to pH 7.4 with HCl.
as §2, §3

[3] = Investigation of the cerebral availability and the oral bioavailability; format: in vivo, male Wistar rats; settings: rat; for bioavailability / Kp: male, Wistar; for bioavailability: plasma, AUCoral/AUCiv, oral 10 mg/kg, intravenous 2 mg/kg, read-out: F (bioavailability); for Kp: brain/plasma, oral, 10 mg/kg of body weight, read-out: AUCbrain/AUCplasma; for cmax (brain) / AUCbrain: oral (gavage) 10 mg/kg, brain tissue; for AUCbrain: trapezoidal method
Experimental: The test substances were administered to male Wistar rats in parallel experiments in each case intravenously (tail vein, 2 mg/kg of body weight) and orally (gavage, 10 mg/kg of body weight). The test compound was dissolved in water with up to 4% by volume of DMSO and/or ethanol for intravenous administration and suspended in 4% by weight aqueous hydroxypropyl-cellulose solution for oral administration. After various times (intravenous: 5 min, 15 min, 30 min, 2 h, 8 h and 24 h; oral: 15 min, 30 min, 2 h, 8 h and 24 h) after the administration, a blood sample or brain tissue were taken from 2 rats in each case. The concentration of the test compound in the blood plasma and in the brain tissue (plasma and brain) was determined in a conventional way by coupled liquid chromatography/mass spectroscopy or by HPLC. The area under the concentration-time plot for brain (AUCbrain) and for plasma (AUCiV, AUCoral) were by means of the trapezoidal method from the results obtained [((tn−tn-1)×(cn+cn-1)/2) calculated, in which tn is the time of determination and tn-1 is the preceding time of determination, and cn and cn-1 are respectively the concentrations at time tn and tn-1]. The maximum concentration of the active ingredients in brain tissue cmax brain, the value of AUCbrain, and the AUCbrain/AUCplasma ratio is a measure of the cerebral availability of the active substance. In addition, the bioavailability F of the active ingredient was calculated in a manner known per se from the data (AUCoral/AUCiv in %).

T2 sequence (P35462 whole entry): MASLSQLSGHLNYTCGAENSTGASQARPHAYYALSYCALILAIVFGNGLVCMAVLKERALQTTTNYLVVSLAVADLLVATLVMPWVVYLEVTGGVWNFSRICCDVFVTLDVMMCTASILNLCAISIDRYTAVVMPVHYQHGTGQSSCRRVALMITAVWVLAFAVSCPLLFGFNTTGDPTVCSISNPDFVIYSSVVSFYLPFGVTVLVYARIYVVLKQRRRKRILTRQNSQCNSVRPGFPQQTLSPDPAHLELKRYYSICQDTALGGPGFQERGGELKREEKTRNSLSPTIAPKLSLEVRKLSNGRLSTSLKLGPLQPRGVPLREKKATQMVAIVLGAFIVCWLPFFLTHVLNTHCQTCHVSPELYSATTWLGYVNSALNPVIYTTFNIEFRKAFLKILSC
T1 sequence (P14416 whole entry, canonical isoform): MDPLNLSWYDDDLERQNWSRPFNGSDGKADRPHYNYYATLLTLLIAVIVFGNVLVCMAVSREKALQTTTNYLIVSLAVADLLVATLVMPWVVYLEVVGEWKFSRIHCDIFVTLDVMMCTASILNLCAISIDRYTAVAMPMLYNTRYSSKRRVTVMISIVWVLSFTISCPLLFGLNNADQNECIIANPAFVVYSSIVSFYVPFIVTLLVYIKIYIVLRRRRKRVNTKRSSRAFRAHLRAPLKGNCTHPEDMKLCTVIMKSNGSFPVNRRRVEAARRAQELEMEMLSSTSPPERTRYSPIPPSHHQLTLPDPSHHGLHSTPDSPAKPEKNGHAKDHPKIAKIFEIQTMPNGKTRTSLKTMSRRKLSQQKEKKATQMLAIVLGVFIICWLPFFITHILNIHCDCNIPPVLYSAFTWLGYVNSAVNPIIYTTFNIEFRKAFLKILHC

CCC(=O)c1ccc2c(c1)CN(CCCSc1nnc(-c3cccn3C)n1C)CC2 (as salt: hydrochloride) [Ia′-15, 2-(3-{[4-Methyl-5-(1-methyl-1H-pyrrol-2-yl)-4H-1,2,4-triazol-3-yl]thio}propyl)-7-propionyl-1,2,3,4-tetrahydroisoquinoline]
melting point: 181 to 184 °C

Cn1c(SCCCN2CCc3ccc(C(=O)c4ccccc4)cc3C2)nnc1-c1ccsc1 (as salt: hydrochloride) [Ia′-18, 7-Benzoyl-2-{3-[(4-methyl-5-thien-3-yl-4H-1,2,4-triazol-3-yl)thio]propyl}-1,2,3,4-tetrahydroisoquinoline]
melting point: 140 °C

Cn1c(SCCCN2CCc3ccc(C(=O)c4cccc(F)c4)cc3C2)nnc1-c1ccccc1 (as salt: hydrochloride) [Ia′-68, 7-(3-Fluorobenzoyl)-2-{3-[(4-methyl-5-phenyl-4H-1,2,4-triazol-3-yl)thio]propyl}-1,2,3,4-tetrahydroisoquinolines]
melting point: 147 °C

Cn1c(SCCCN2CCc3ccc(C(=O)c4ccccc4)cc3C2)nnc1-c1ccncc1 [Ia′-1, 7-Benzoyl-2-{3-[(4-methyl-5-pyridin-4-yl-4H-1,2,4-triazol-3-yl)thio]propyl}-1,2,3,4-tetrahydroisoquinoline]
Ki (D2)/Ki (D3) [1]: 133
Ki [2]: 0.0114 µM

Cn1c(SCCCN2CCc3ccc(C(=O)c4ccccc4)cc3C2)nnc1-c1ccco1 [Ia′-3, 7-Benzoyl-2-(3-{[5-(2-furyl)-4-methyl-4H-1,2,4-triazol-3-yl]thio}propyl)-1,2,3,4-tetrahydroisoquinoline]
Ki (D2)/Ki (D3) [1]: 40
Ki [2]: 0.0193 µM

CC(=O)c1ccc2c(c1)CN(CCCSc1nnc(-c3cccn3C)n1C)CC2 [Ia′-4, 7-Acetyl-2-(3-{[4-methyl-5-(1-methyl-1H-pyrrol-2-yl)-4H-1,2,4-triazol-3-yl]thio}propyl)-1,2,3,4-tetrahydroisoquinoline]
Ki (D2)/Ki (D3) [1]: 80
Ki [2]: 0.0045 µM

Cn1cccc1-c1nnc(SCCCN2CCc3ccc(C(=O)c4ccccc4)cc3C2)n1C [Ia′-12, 7-Benzoyl-2-(3-{[4-methyl-5-(1-methyl-1H-pyrrol-2-yl)-4H-1,2,4-triazol-3-yl]thio}propyl)-1,2,3,4-tetrahydroisoquinoline]
Ki (D2)/Ki (D3) [1]: 90
Ki [2]: 0.0107 µM
bioavailability [3]: 10%
Kp [3]: 0.2
cmax (brain) [3]: 130 ng/g
AUCbrain [3]: 306 ng·h/g

CCC(=O)c1ccc2c(c1)CN(CCCSc1nnc(-c3cccn3C)n1C)CC2 [Ia′-15, 2-(3-{[4-Methyl-5-(1-methyl-1H-pyrrol-2-yl)-4H-1,2,4-triazol-3-yl]thio}propyl)-7-propionyl-1,2,3,4-tetrahydroisoquinoline]
Ki (D2)/Ki (D3) [1]: 103
Ki [2]: 0.0044 µM
bioavailability [3]: 100%
Kp [3]: 0.3
cmax (brain) [3]: 686 ng/g
AUCbrain [3]: 2903 ng·h/g

Cn1c(SCCCN2CCc3ccc(C(=O)c4ccccc4)cc3C2)nnc1-c1ccsc1 [Ia′-18, 7-Benzoyl-2-{3-[(4-methyl-5-thien-3-yl-4H-1,2,4-triazol-3-yl)thio]propyl}-1,2,3,4-tetrahydroisoquinoline]
Ki (D2)/Ki (D3) [1]: 48
Ki [2]: 0.0224 µM

Cn1c(SCCCN2CCc3ccc(C(=O)c4ccccc4)cc3C2)nnc1-c1ccccc1 [Ia′-19, 7-Benzoyl-2-{3-[(4-methyl-5-phenyl-4H-1,2,4-triazol-3-yl)thio]propyl}-1,2,3,4-tetrahydroisoquinolines]
Ki (D2)/Ki (D3) [1]: 149
Ki [2]: 0.0086 µM

CCC(=O)c1ccc2c(c1)CN(CCCSc1nnc(-c3ccccc3)n1C)CC2 [Ia′-25, 2-{3-[(4-methyl-5-phenyl-4H-1,2,4-triazol-3-yl)thio]propyl}-7-propionyl-1,2,3,4-tetrahydroisoquinoline]
Ki (D2)/Ki (D3) [1]: 90
Ki [2]: 0.0044 µM

CC(=O)c1ccc2c(c1)CN(CCCSc1nnc(-c3cccnc3)n1C)CC2 [Ia′-39, 7-Acetyl-2-{3-[(4-methyl-5-pyridin-3-yl-4H-1,2,4-triazol-3-yl)thio]propyl}-1,2,3,4-tetrahydroisoquinolines]
Ki (D2)/Ki (D3) [1]: 37
Ki [2]: 0.0188 µM

CCC(=O)c1ccc2c(c1)CN(CCCSc1nnc(-c3cc4ccccc4s3)n1C)CC2 [Ia′-57, 1-[2-(3-{[5-(1-Benzothien-2-yl)-4-methyl-4H-1,2,4-triazol-3-yl]thio}propyl)-1,2,3,4-tetrahydroisoquinolin-7-yl]propan-1-one]
Ki (D2)/Ki (D3) [1]: 59
Ki [2]: 0.0026 µM

Cn1c(SCCCN2CCc3ccc(C(=O)c4cccc(F)c4)cc3C2)nnc1-c1cnccn1 [Ia′-58, 7-(3-Fluorobenzoyl)-2-{3-[(4-methyl-5-pyrazin-2-yl-4H-1,2,4-triazol-3-yl)thio]propyl}-1,2,3,4-tetrahydroisoquinoline]
Ki (D2)/Ki (D3) [1]: 39
Ki [2]: 0.0255 µM

Cn1cccc1-c1nnc(SCCCN2CCc3ccc(C(=O)c4cccc(F)c4)cc3C2)n1C [Ia′-60, 7-(3-Fluorobenzoyl)-2-(3-{[4-methyl-5-(1-methyl-1H-pyrrol-2-yl)-4H-1,2,4-triazol-3-yl]thio}-propyl)-1,2,3,4-tetrahydroisoquinoline]
Ki (D2)/Ki (D3) [1]: 37
Ki [2]: 0.0303 µM

Cn1c(SCCCN2CCc3ccc(C(=O)c4cccc(F)c4)cc3C2)nnc1-c1cccnc1 [Ia′-63, 7-(3-Fluorobenzoyl)-2-{3-[(4-methyl-5-pyridin-3-yl-4H-1,2,4-triazol-3-yl)thio]propyl}-1,2,3,4-tetrahydroisoquinolines]
Ki (D2)/Ki (D3) [1]: 38
Ki [2]: 0.0403 µM

Cn1c(SCCCN2CCc3ccc(C(=O)c4cccc(F)c4)cc3C2)nnc1-c1ccccc1 [Ia′-68, 7-(3-Fluorobenzoyl)-2-{3-[(4-methyl-5-phenyl-4H-1,2,4-triazol-3-yl)thio]propyl}-1,2,3,4-tetrahydroisoquinolines]
Ki (D2)/Ki (D3) [1]: 56
Ki [2]: 0.0149 µM

CCC(=O)c1ccc2c(c1)CN(CCCSc1nnc(-c3ccccc3)n1C)C2.Cl [Ib′-25, 1-(2-{3-[(4-Methyl-5-phenyl-4H-1,2,4-triazol-3-yl)thio]propyl}-2,3-dihydro-1H-isoindol-5-yl)propan-1-one hydrochloride]
Ki (D2)/Ki (D3) [1]: 126
Ki [2]: 0.0214 µM

CCC(=O)c1ccc2c(c1)CN(CCCSc1nnc(-c3ccc[nH]3)n1C)C2.Cl [Ib′-65, 1-[2-(3-{[4-Methyl-5-(1H-pyrrol-2-yl)-4H-1,2,4-triazol-3-yl]thio}propyl)-2,3-dihydro-1H-isoindol-5-yl]propan-1-one hydrochloride]
Ki (D2)/Ki (D3) [1]: 49
Ki [2]: 0.04 µM
